Molecular target: PRMT5 (Homo sapiens (Human), UniProt O14744)
Test: In vitro evaluation of kinase activity (PRMT5 enzymatic assay, [3H]-SAM FlashPlate)
Assay type: biochemical
Conditions: polypeptide substrate H4(1-21)S1ac 100 nM, [3H]-SAM 250 nM, 25° C., 60 min; read-out: Enzyme IC50 PRMT5
Description: Compounds: the compounds of the present invention prepared in the above examples. Each compound was formulated into a 10 mM stock solution with DMSO, and finally diluted into 10 concentrations for detection, with the final concentrations being 10000.00 nM, 3333.33 nM, 1111.11 nM, 370.37 nM, 123.46 nM, 41.15 nM, 13.72 nM, 4.57 nM, 1.52 nM, and 0.51 nM.
Reagents and consumables: PRMTS, purchased from Active Motif, Cat. No. 31921; polypeptide substrate H4(1-21)S1ac, purchased from Gill Biochemical (Shanghai) Co., Ltd., Cat. No. 342095; [^3H]-SAM, purchased From PerkinElmer, Cat. No. NET155V001MC; SAM, purchased from Sigma, Cat. No. A7007-100MG; SAH, purchased from Sigma, Cat. No. A9384-25MG; DTT, purchased from Sangon Bioengineering (Shanghai) Co., Ltd., Cat. No. A620058-0005. Corning-3657, purchased from Corning, Cat. No. 3657; Echo Qualified 384-Well, purchased from Labcyte, Cat. No. P-05525; FlashPlate, purchased from Perkin Elmer, Cat. No. SMP410J001PK.
2.1. Preparation of reaction buffer and reaction stop solution: the composition of 1× reaction buffer was 10 mM Tris-HCl, pH 8.0; 0.01% Tween-20; and 1 mM DTT. The composition of the reaction stop solution was 125 μM […] solution.
The compounds were dissolved in 100% DMSO to prepare 10 mM stock solutions and then diluted to desired concentrations on an Echo 384 well plate.
250 nL of the compounds diluted above were transferred from the Echo 384 well plate to a 384 well reaction plate using the Echo550 instrument.
PRMT5 was added to 1× reaction buffer to form 1.67× enzyme solution.
The polypeptide substrate and [^3H]-SAM were added to 1× reaction buffer to form 2.5× substrate solution (the final concentrations were 100 nM and 250 nM, respectively).
15 μL of 1.67× enzyme solution was added to the wells of a 384 well reaction plate. For control wells without enzymatic activity, the enzyme solution was replaced with 15 μL of 1× reaction buffer. The plate was centrifuged at 1000 rpm for 1 min and incubated at room temperature for 15 min. […]

Sequence of PRMT5 (O14744 whole entry): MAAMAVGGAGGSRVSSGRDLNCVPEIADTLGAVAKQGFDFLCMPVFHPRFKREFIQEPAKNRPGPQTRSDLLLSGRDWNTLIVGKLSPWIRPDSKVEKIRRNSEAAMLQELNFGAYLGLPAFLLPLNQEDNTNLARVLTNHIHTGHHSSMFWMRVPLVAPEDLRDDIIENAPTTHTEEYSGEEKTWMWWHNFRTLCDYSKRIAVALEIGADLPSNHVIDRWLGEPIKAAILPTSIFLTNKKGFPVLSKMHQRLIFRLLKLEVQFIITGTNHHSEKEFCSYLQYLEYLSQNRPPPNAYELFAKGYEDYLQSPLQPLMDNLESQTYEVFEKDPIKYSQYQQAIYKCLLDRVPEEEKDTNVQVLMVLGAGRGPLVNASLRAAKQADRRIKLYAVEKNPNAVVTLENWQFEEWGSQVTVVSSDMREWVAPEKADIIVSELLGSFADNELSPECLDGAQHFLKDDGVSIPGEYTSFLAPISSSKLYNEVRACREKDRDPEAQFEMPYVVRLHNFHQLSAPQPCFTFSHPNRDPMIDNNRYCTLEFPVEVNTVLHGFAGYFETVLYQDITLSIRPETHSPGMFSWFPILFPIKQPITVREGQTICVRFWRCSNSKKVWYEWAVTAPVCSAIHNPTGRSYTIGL
Sequence of PRMT5 (Q9BQA1 whole entry partner): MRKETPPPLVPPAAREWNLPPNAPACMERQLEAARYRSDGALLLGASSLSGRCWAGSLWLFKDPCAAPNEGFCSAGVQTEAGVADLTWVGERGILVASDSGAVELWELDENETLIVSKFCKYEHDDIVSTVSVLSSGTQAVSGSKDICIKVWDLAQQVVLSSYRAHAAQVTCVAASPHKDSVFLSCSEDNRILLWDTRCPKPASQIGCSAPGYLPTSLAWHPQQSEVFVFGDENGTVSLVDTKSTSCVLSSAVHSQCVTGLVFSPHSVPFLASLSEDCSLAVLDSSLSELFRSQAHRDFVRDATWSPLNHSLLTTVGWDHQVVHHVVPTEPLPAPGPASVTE

## CC(=O)N1CC2(CC(Nc3ccc4c(c3)C(=O)N(C[C@H](O)CN3CCc5ccccc5C3)CC43CC3)C2)C1 [Example 10, (R)-7′-((2-Acetyl-2-azaspiro[3.3]hept-6-yl)amino)-2′-(3-(3,4-dihydroisoquinolin-2(1H)-yl)-2-hydroxypropyl)-2′,3′-dihydro-1′H-spiro[cyclopropane-1,4′-isoquinolin]-1′-one]
  IC50: 2660 nM
